The text below walks through data of patent US5129951A, “Aromatic aldehydes and alcohols as potato tuber sprout inhibitors” (priority 1991, dated 1992).

The nature of data set [1]: Theoretical saturated headspace concentration calculated from known vapor pressures. Format: physicochemical. The following applies: calculated from known vapor pressures by Ideal Gas Law. As for the experimental part: Because these compounds were difficult to quantitate by gas chromatography at the concentration levels in saturated headspaces, theoretical saturated concentrations were calculated by converting known vapor pressures of each compound at 25° C. to molar concentrations using the Ideal Gas Law, […], where n/V is the molar concentration, P is the partial pressure (atm), R is the Ideal Gas constant (0.0821 l atm/mol ° K.), and T is the temperature (° K.).

Data set [2] deals with potato tubers. Kind of data set: Sprout inhibition of tubers exposed to compounds in headspace gas for 7 days (Example 1). Type of data set: in vivo, Solanum tuberosum L. cv `Norchip`. The following applies: 7 days in saturated headspace gas, 25° C.; for % Eyes Sprouted: dark, control 100, LSD (0.05) 12.
For data set [3], the system named is fungi. As to the kind of experiment: Fungal growth on tubers exposed to compounds in headspace gas for 7 days (Example 1). On Fungal growth: key: -: no fungi visible; +: = some fungi; ++: heavy fungal growth. Format: in vivo. The settings on record: 7 days in saturated headspace gas, 25° C.; for Fungal Growth: control ++. The text has this:
(control flasks lacked any compounds).

For data set [4], the system named is potato tubers. Kind of data set: Tuber sprouting after removal from exposure to volatilized aromatics for 1, 2, 4, 7 or 10 days (Example 2). Type of data set: in vivo, Solanum tuberosum L. cv `Norchip`. The following applies: 14 days after removal; for % Eyes Sprouted: 25° C., LSD (0.05) 24. As for the experimental part: (§1) Each treatment consisted of placing the tubers in sealed 9.2 l flasks containing excess levels of the treatment compounds at 25° C. as in Example 1. Three tubers were then removed from each treatment after 1, 2, 4, 7, and 10 days, and placed in flasks containing fresh humidified air (free of any additional volatilized compounds) at 25° C. Control tubers were placed in sealed flasks lacking any added compounds and three were removed after 1 and 10 days. Fourteen days after removal from the sealed flasks containing treatment compounds, all tubers were examined for percentage of eyes sprouted, tuber texture, and fungal growth. Each treatment was replicated once and each experiment was repeated once.

The subject of data set [5] is fungi. Kind of data set: Fungal growth on tubers after removal from exposure to volatilized aromatics (Example 2). Type of data set: in vivo. As to the method:
as §1

In data set [6] the test system is potato tubers. As to the kind of experiment: Tuber texture after removal from exposure to volatilized aromatics (Example 2). Type of data set: in vivo, Solanum tuberosum L. cv `Norchip`. As for the experimental part: as §1
The subject of data set [7] is potato tubers. Kind of data set: Tuber sprouting 14 days after direct application of aromatic compounds (Example 3). Type of data set: in vivo, Solanum tuberosum L. cv `Norchip`. The following applies: for % Eyes Sprouted: 25° C., control 98, LSD (0.05) 14.
The test system of data set [8] is fungi. Kind of data set: Fungal growth 14 days after direct application of aromatic compounds (Example 3). Format: in vivo.
Data set [9] concerns potato tubers. Kind of data set: Tuber sprouting after removal from exposure to volatilized aromatics for 1, 2, 4, 7 or 10 days (Example 2). The following applies: exposure for 10 days, 75 days after removal. Format: in vivo, Solanum tuberosum L. cv `Norchip`.
For data set [10] the following is noted: cited from earlier work; for Temperature at Which Vapor Pressure Equals 1 mm Hg: vapor pressure 1 mm Hg.
Data set [11] deals with potato tubers. Kind of data set: Tuber texture/quality after exposure to compounds in headspace gas for 7 days (Example 1). The settings on record: 7 days in saturated headspace gas, 25° C.
Data set [12] has as its system potato tubers. As to the kind of experiment: Tuber texture and quality 14 days after direct application of aromatic compounds (Example 3). The following applies: for Tuber Texture: control SS.
Another data set concerns plants. The following applies: Putnam and Tang; cited from earlier work.
Data set [13] deals with potato tubers. The following applies: in vivo.
Data set [14] concerns potato tubers. The following applies: in vivo. The source holds these as a separate data set.
The mark [15] stands for this setting: 1 day exposure, 14 days after removal, control +.
[16] abbreviates: 2 days exposure, 14 days after removal.
Setting [17] is: 4 days exposure, 14 days after removal.
Where [18] appears, read: 7 days exposure, 14 days after removal.
[19] abbreviates: 10 days exposure, 14 days after removal, control +.
The mark [20] stands for this setting: 100% (pure, sprayed), control +.
The mark [21] stands for this setting: 14 days after removal from exposure.

“Also recorded” adds a separate entry of the source. Where two headings read alike, the source gives them in different places.

Consider `O=Cc1ccccc1` [Benzaldehyde], for which the “Concentration of Saturated Headspace at 25° C.” value (from here on “Concentration”) in data set [1] was 48000 nM. In addition, in the data set on potato tubers [2], the “effect on tuber sprouting” value is listed as “completely inhibited sprouting”. Moreover, the “% Eyes Sprouted” value came to 0% with potato tubers [2]; 88% in the data set with potato tubers [4] (1 day exposure, control 96); 42% with potato tubers [4] (2 days exposure); 14% in the data set on potato tubers [4] (4 days exposure); 2% with potato tubers [4] (7 days exposure); 0% in the data set on potato tubers [4] (10 days exposure, control 100). Also, the “% Eyes Sprouted” value in the data set on potato tubers [7] (1% emulsion (dip)) came to 43%; with potato tubers [7] (10% emulsion (dip)), 0%; with potato tubers [7] (100% (pure, sprayed)) it was 0%. The “effect on fungal growth” value in the data set with fungi [3] is reported as “prevented any visible fungal growth”. Further, the “Fungal Growth” value in the data set on fungi [3], with fungi [5] (setting [15]), in the data set with fungi [5] (setting [16]), with fungi [5] (setting [17]), with fungi [5] (setting [18]) and with fungi [5] (setting [19]) was “-” each time. The “Fungal Growth” value is recorded as “heavily covered with fungal growth” with fungi [8] (10% emulsion); “++” with fungi [8] (10% emulsion (dip), control +); “++” with fungi [8] (setting [20]). Further, the “inhibition of tuber sprouting” value with potato tubers [4] (exposure for 7 or fewer days) is recorded as “did not completely inhibit sprouting”; with potato tubers [4] (exposure for 10 days), “completely inhibited sprouting”. For the same molecule, the “tuber firmness” value in the data set on potato tubers [6] (1 day treatment, 14 days after removal) is given as “slightly soft”. Besides, in the data set with potato tubers [7] (10% emulsion), the “inhibition of sprouting” value is listed as “completely inhibited sprouting without damaging the potato tubers”. Also, the “sprouting” value with potato tubers [9] was “remained unsprouted”. Further, the “Temperature at Which Vapor Pressure Equals 1 mm Hg” value (“Temperature” below) in data set [10] was 26.2 °C. The “Solubility in Water at 25° C.” value in data set [10] is given as “sl. soluble”. Moreover, the “tuber condition” value in the data set with potato tubers [11] was “firm and appeared healthy”; in the data set on potato tubers [12] (10% emulsion), “remained hard, with no necrosis or surface pitting”. Moreover, the “Tuber Texture” value with potato tubers [12] (100% (pure, sprayed)) is reported as “S,N”.

Consider `O=C(O)c1ccccc1` [Benzoic acid], for which the “Concentration” value in data set [1] was 100 nM. For the same molecule, in the data set on potato tubers [2], the “effect on tuber sprouting” value was “no significant effect on tuber sprouting; also recorded: little or no inhibition of sprouting” and the “% Eyes Sprouted” value was determined as 98%. Besides, in the data set with fungi [3], the “effect on fungal growth” value is “present to some extent” and the “Fungal Growth” value is recorded as “+”. In addition, the reported allelopathy result with plants is given as “allelopathic”. In addition, in data set [10], the “Temperature” value was 96.0 °C. The “tuber condition” value with potato tubers [11] is reported as “soft to the touch”.

As for `OCC=Cc1ccccc1` [Cinnamyl alcohol], in data set [1], the “Concentration” value was 2400 nM. For the same molecule, in the data set on potato tubers [2], the “effect on tuber sprouting” value is recorded as “no significant effect on tuber sprouting” and the “% Eyes Sprouted” value stood at 91%. Besides, in the data set on fungi [3], the “effect on fungal growth” value is listed as “present to some extent” and the “Fungal Growth” value is recorded as “+”. The “tuber condition” value in the data set on potato tubers [13] is on record as “slightly soft”. The “Solubility in Water at 25° C.” value in data set [10] is “soluble”.

Take `CC=Cc1ccc(O)c(OC)c1` [Isoeugenol]: the “Concentration” value in data set [1] is 1300 nM. In addition, in the data set on potato tubers [2], the “effect on tuber sprouting” value is “no significant effect on tuber sprouting” and the “% Eyes Sprouted” value was 89%. Further, in the data set on fungi [3], the “effect on fungal growth” value is given as “especially heavy growth” and the “Fungal Growth” value is “++”. Further, the “tuber condition” value in the data set with potato tubers [13] is reported as “remained firm”.

With `O=Cc1ccccc1O` [Salicylaldehyde], the “Concentration” value in data set [1] is 36000 nM. The “effect on tuber sprouting” value in the data set with potato tubers [2] is reported as “completely inhibited sprouting”. Further, the “% Eyes Sprouted” value in the data set on potato tubers [2] is 0%; with potato tubers [4] (1 day exposure, control 96) it was 0%; in the data set with potato tubers [4] (2 days exposure), 0%; in the data set with potato tubers [4] (4 days exposure) it was 0%; with potato tubers [4] (7 days exposure), 0%; with potato tubers [4] (10 days exposure, control 100) it was 0%. Moreover, the “% Eyes Sprouted” value with potato tubers [7] (1% emulsion (dip)) stood at 0%; in the data set with potato tubers [7] (10% emulsion (dip)), 0%; in the data set on potato tubers [7] (100% (pure, sprayed)), 0%. In addition, the “effect on fungal growth” value in the data set on fungi [3] was “prevented any visible fungal growth”. In addition, the “Fungal Growth” value with fungi [3], with fungi [5] (setting [15]), in the data set with fungi [5] (setting [16]), in the data set with fungi [5] (setting [17]), in the data set with fungi [5] (setting [18]) and in the data set on fungi [5] (setting [19]) was “-” in each case. For the same molecule, the “Fungal Growth” value is reported as “lacked visible fungal growth” in the data set with fungi [5] (setting [21]); “++” in the data set on fungi [8] (1% emulsion (dip), control +); “-” with fungi [8] (10% emulsion (dip), control +); “-” with fungi [8] (setting [20]). Moreover, the “inhibition of tuber sprouting” value with potato tubers [4] (after 1 or more days of treatment) was “completely inhibited tuber sprouting”. The “tuber firmness” value in the data set on potato tubers [6] (setting [21]) is “firm”. In addition, in the data set with potato tubers [9], the “sprouting” value is “remained unsprouted”. Also, in the data set with potato tubers [11], the “tuber condition” value was “firm and appeared healthy”. Also, the “Tuber Texture” value was “S,N” in the data set on potato tubers [12] (1% emulsion (dip)); “S,N” in the data set with potato tubers [12] (10% emulsion (dip)); “S,N” in the data set with potato tubers [12] (100% (pure, sprayed)).

Turning to `Cc1ccc(C(C)C)c(O)c1` [Thymol], the “Concentration” value in [1] is 2900 nM. Also, in the data set on potato tubers [2], the “effect on tuber sprouting” value was “completely inhibited sprouting”. Besides, the “% Eyes Sprouted” value in the data set on potato tubers [2] is 0%; in the data set with potato tubers [4] (1 day exposure, control 96) it was 83%; in the data set with potato tubers [4] (2 days exposure), 60%; with potato tubers [4] (4 days exposure), 44%; in the data set on potato tubers [4] (7 days exposure) it was 6%; in the data set with potato tubers [4] (10 days exposure, control 100), 0%. Moreover, the “% Eyes Sprouted” value in the data set with potato tubers [7] (1% emulsion (dip)) and in the data set with potato tubers [7] (10% emulsion (dip)) was 0% each time. In the data set on fungi [3], the “effect on fungal growth” value is “prevented any visible fungal growth”. Also, the “Fungal Growth” value with fungi [3] was “-”; with fungi [5] (setting [18]) it was “-”; in the data set on fungi [5] (setting [19]), “-”; with fungi [8] (1% emulsion (dip), control +) it was “-”; with fungi [8] (10% emulsion (dip), control +), “-”. Also, the “inhibition of tuber sprouting” value in the data set on potato tubers [4] (exposure for 7 or fewer days) was “did not completely inhibit sprouting”; in the data set on potato tubers [4] (exposure for 10 days), “completely inhibited sprouting”. Besides, the “tuber firmness” value in the data set with potato tubers [6] (in vivo) is listed as “slightly soft”. Moreover, in the data set on potato tubers [7] (1% emulsion), the “inhibition of sprouting” value is on record as “suppressed sprouting”. The “tuber condition” value with potato tubers [14] was “large pitted areas on the tuber surface near each eye”; in the data set on potato tubers [11], “firm and appeared healthy”.

Consider `COc1cc(C=O)ccc1O` [Vanillin], for which the “Concentration” value in data set [1] is 100 nM. In addition, in the data set on potato tubers [2], the “effect on tuber sprouting” value is “only slightly suppressed sprouting; also recorded: little or no inhibition of sprouting” and the “% Eyes Sprouted” value is on record as 87%. In the data set with fungi [3], the “effect on fungal growth” value is “present to some extent” and the “Fungal Growth” value is “+”. The reported allelopathy result in the data set on plants was “allelopathic”. Besides, in [10], the “Temperature” value was 107.0 °C and the “Solubility in Water at 25° C.” value was “sl. soluble”.
